For data set [1], the system named is ventricular flutter and fibrillation. Nature of the data set: Protection against chloroform-induced ventricular arrhythmias in mice (Lawson method), subcutaneous. Conditions: 30 min before chloroform inhalation, male ddy mice; for ED50 / ED20 / ED40: Mus musculus, sc; for ED50: read-out: ED50 (95% confidence limits), antiarrhythmic activity; for ED20: read-out: ED20, antiarrhythmic activity; for ED40: read-out: ED40, antiarrhythmic activity. The class given is in vivo, ddy strain). Here is the method: In accordance with the method described by J. W. Lawson (Journal of Pharmacology and Experimental Therapeutics, vol. 160, pp. 22, 1968), male mice of the ddy strain weighing 16 to 30 g were allowed to inhale chloroform to induce ventricular arrhythmias. At the time when they ceased to breathe, the electrocardiogram of each animal was recorded to observe the ventricular flutter and fibrillation. The abnormalities of the ventricles observed in these animals can be prevented by pretreatment with substances which have antiarrhythmic activity. The compounds of this invention were subcutaneously injected in 4-5 different doses to groups of 29 to 40 mice. Thirty minutes later, the mice were subjected to inhalation of chloroform to induce arrhythmias, and the protection by each dose against the ventricular flutter and fibrillation were expressed as percent. […]

Data set [2] in a line: 50% lethal dose (LD50) by Up and Down Method in mice, and therapeutic index. The class given is in vivo. Conditions: mouse, in vivo; Up and Down Method; male ddy mice 18 to 22 g. From the text:
(§1) The 50% lethal doses (median lethal doses, LD50) were computed by the "Up and Down Method" (Pharmacological Experiment, compiled by Takagi and Ozawa, pp. 204, Nanzando, 1972) using male mice of the ddy strain weighing 18 to 22 g, and the ratios of the LD50 to ED50 values were expressed as the therapuetic indices, as presented in Table 1.

Data set [3] relates to male mice of the ddy strain. The data set is described as above. The format is in vivo. To be noted: LD50/ED50.
Source text: as §1

The values that follow come from patent US4605662A, “1-substituted pyrrolizidine derivatives and antiarrhythmic use thereof” (Suntory Ltd., priority 1982, dated 1986).

Where only a bound is given, the exact number is not on record here.

A word on the ED50: it is the midpoint of the dose-response relation. The LD50 is the dose at which mortality reaches 50%. A higher LD50 goes with a less toxic substance. As to `Cc1ccccc1NC(=O)[C@@H]1CCN2CCC[C@@H]12` (relative stereo), in data set [1] (Litchfield and Wilcoxon), the ED50 was more than 100 mg/kg. In addition, the ED20 in data set [1] came to 100 mg/kg. In data set [2], this compound yielded an LD50 of more than 500 mg/kg.
For the compound `COc1cccc(NC(=O)[C@@H]2CCN3CCC[C@@H]23)c1` (relative stereo) [III], the ED50 in data set [1] (Litchfield and Wilcoxon) is more than 100 mg/kg. The ED40 in data set [1] was found to be 100 mg/kg. This compound registered an LD50 in data set [2] of more than 500 mg/kg.
`COc1ccccc1NC(=O)[C@@H]1CCN2CCC[C@@H]12` (relative stereo) [II]: in data set [1] (Litchfield and Wilcoxon), the ED50 came to 74 mg/kg. This compound also yielded an LD50 in data set [2] of more than 500 mg/kg.
With `COc1ccc(NC(=O)[C@@H]2CCN3CCC[C@@H]23)cc1` (relative stereo) [IV], in data set [1] (Litchfield and Wilcoxon), the ED50 was more than 100 mg/kg. Further, in data set [1], the ED20 turned out to be 100 mg/kg. This compound showed an LD50 in data set [2] of more than 500 mg/kg.
As for `Cc1cccc(C)c1NC(=O)[C@@H]1CCN2CCC[C@@H]12` (relative stereo) [IX], the ED50 in data set [1] (Litchfield and Wilcoxon) was 29 mg/kg. The LD50 in data set [2] was found to be 447 mg/kg. The “Therapeutic index (ratio of LD50 to ED50)” value in data set [3] stood at 15.4.
Take `Cc1ccc(C)c(NC(=O)[C@@H]2CCN3CCC[C@@H]23)c1` (relative stereo) [VIII]: the ED50 in data set [1] (Litchfield and Wilcoxon) is more than 100 mg/kg. Besides, in data set [1], the ED20 worked out at 100 mg/kg. In addition, the 50% lethal dose (LD50) in data set [2] was more than 500 mg/kg.
On the same counts, the results for `Cc1cccc(NC(=O)[C@@H]2CCN3CCC[C@@H]23)c1C` (relative stereo) [VII] are more than 100 mg/kg, 100 mg/kg and more than 500 mg/kg.
As for `O=C(Nc1ccccc1Br)[C@@H]1CCN2CCC[C@@H]12` (relative stereo) [VI], in data set [1] (Litchfield and Wilcoxon), the ED50 was more than 100 mg/kg. The ED40 in data set [1] came to 100 mg/kg. In data set [2], this compound had an LD50 of more than 500 mg/kg.
As for `O=C(Nc1ccccc1Cl)[C@@H]1CCN2CCC[C@@H]12` (relative stereo) [V], in data set [1] (Litchfield and Wilcoxon), the “ED50 (95% confidence limits), antiarrhythmic activity” value was 100 mg/kg and the ED50 was more than 100 mg/kg. Besides, the LD50 in data set [2] was determined as 263 mg/kg.
As to `O=C(Nc1c(Cl)cccc1Cl)[C@@H]1CCN2CCC[C@@H]12` (relative stereo) [XIII], the ED50 in data set [1] (Litchfield and Wilcoxon) came out at 38 mg/kg. Moreover, in data set [2], the LD50 was determined as 263 mg/kg. The “Therapeutic index (ratio of LD50 to ED50)” value in data set [3] was 6.92.
For the compound `COc1ccc(OC)c(NC(=O)[C@@H]2CCN3CCC[C@@H]23)c1` (relative stereo) [XII], the ED50 in data set [1] (Litchfield and Wilcoxon) was more than 100 mg/kg. Besides, the ED40 in data set [1] was found to be 100 mg/kg. The compound also displayed a 50% lethal dose (LD50) in data set [2] of more than 500 mg/kg.
On to `O=C(Nc1c(Br)cccc1Br)[C@@H]1CCN2CCC[C@@H]12` (relative stereo) [XIV], for which, in data set [1] (Litchfield and Wilcoxon), the ED50 stood at 43 mg/kg. In data set [2], this compound came in with a median lethal dose (LD50) of 468 mg/kg. The “Therapeutic index (ratio of LD50 to ED50)” value in data set [3] is 10.88.
On the same counts, the results for `CCc1cccc(CC)c1NC(=O)[C@@H]1CCN2CCC[C@@H]12` (relative stereo) [XI] are 38 mg/kg, 244 mg/kg and 6.24.
With `Cc1cc(C)c(NC(=O)[C@@H]2CCN3CCC[C@@H]23)c(C)c1` (relative stereo) [XV], in data set [1] (Litchfield and Wilcoxon), the ED50 was more than 100 mg/kg. In addition, the ED20 in data set [1] turned out to be 100 mg/kg. The same compound had an LD50 in data set [2] of 394 mg/kg.
For `Cc1cc(C)cc(NC(=O)[C@@H]2CCN3CCC[C@@H]23)c1` (relative stereo) [X] the same measures were 100 mg/kg, more than 100 mg/kg and more than 500 mg/kg.
